This passage reports IC50 results from patent US8648068B2, “Heterocycloalkyl-containing thienopyrimidines for pharmaceutical compositions” (Boehringer Ingelheim International GmbH, priority 2010, dated 2014).

This test concerns the target T1, human Mnk2a (Homo sapiens, UniProt Q9HBH9).
T1 construct: made in house; host or cells: E. coli BL21 (vector pGEX-4T1)
The test can be described thus: Mnk2a in vitro kinase assay (indirect fluorescence polarization). The test is classed as biochemical. To be noted: GST-Mnk2a pre-activated with ERK2, 20 μM ATP, 30 μM substrate peptide; read-out: MNK2 IC50. The protocol:
Inhibitory potency of compounds against Mnk1, Mnk2a and other kinases was assessed with assays based on a format known to those skilled in the art as the indirect (competitive) fluorescence polarization. The assay detection system comprises a small fluorophore-labeled phospho-peptide (termed ligand) bound to a phospho-specific antibody. The product generated by the kinase reaction competes with the ligand for antibody binding. Based on the larger molecular volume of the bound ligand, which results in a lower rotation rate in solution, its emitted light has a higher degree of polarization than the one from the free ligand.
As a source of enzyme, human Mnk1 and human Mnk2a were expressed as GST fusion proteins in E. coli, purified to >80% homogeneity by glutathione affinity chromatography and activated in vitro with pre-activated ERK2. In brief, the open reading frames of human Mnk1 and Mnk2a were amplified from cDNA using the forward/reverse primer pairs
(utilized restriction sites underlined), respectively, and cloned into the BamHI and SalI sites of the vector pGEX-4T1 (Amersham, Sweden, cat. no. 27-4580-01). These constructs allow prokaryotic expression of Mnk1 or Mnk2a as fusion protein with a N-terminal glutathione S-transferase (GST) tag, referred to as GST-Mnk1 or GST-Mnk2a. The following expression and purification procedure was identical for GST-Mnk1 and GST-Mnk2a, referring in general to GST-Mnk, when not distinguishing between the two isoforms. Expression of GST-Mnk was in E. coli BL21 (Merck Biosciences, Germany, cat. no. 69449). Cells were grown in LB-Bouillon (Merck, Germany, cat. no. 1.10285) supplemented with 100 μg/ml ampicillin (Sigma, Germany, cat. no. A9518) at 37° C. When the culture had reached a density corresponding to an A600 of 0.8, an equal volume of ice cold LB/ampicillin was added, the culture transferred to 25° C. and induced for 4 h with 1 mM isopropyl thiogalactoside (IPTG, Roth, Germany, cat. no. 2316.4). Cells harvested by centrifugation were resuspended in 10 ml lysis buffer (50 mM tris(hydroxymethyl)aminomethane hydrochloride (Tris/HCl, Sigma, Germany, cat. no. T5941) pH 7.5, 300 mM sodium chloride (NaCl, Sigma, Germany, cat. no. S7653), 5% (w/v) glycerol (Sigma, Germany, cat. no. G5516), 3 mM DTT dithiotreitol (DTT, Sigma, Germany, cat. no. D9779)) per gram wet weight cell pellet. Lysates were prepared by disruption of cells with a sonifier and subsequent clearing by centrifugation at 38000 g for 45 min at 4° C.
The lysate was applied to a GSTPrep FF 16/10 column (Amersham, Sweden, cat. no. 17-5234-01) equilibrated with lysis buffer. Removal of unbound material was with 3 column volumes (CV) lysis buffer. Elution was with 2 CV of elution buffer (50 mM Tris/HCl pH 7.5, 300 mM NaCl, 5% (w/v) glycerol, 20 mM glutathione (Sigma, Germany, cat. no. G4251)). Peak fractions were pooled and the protein transferred into storage buffer (50 mM Tris/HCl pH 7.5, 200 mM NaCl, 0.1 mM ethylene glycol-bis(2-aminoethylether)-N,N,N′,N′-tetraacetic acid (EGTA, Aldrich, Germany, cat. no. 23, 453-2), 1 mM DTT, 10% (w/v) glycerol, 0.5 M sucrose (Sigma, Germany, cat. no. SO389) by gel filtration on a PD10 desalting column (Amersham, Sweden, cat. no. 17-0851-01). Aliquots were shock frozen in liquid nitrogen and stored at −80° C.
Activation of Mnk1 and Mnk2a was at a concentration of 2.5 μM of either purified GST-Mnk1 or GST-Mnk2a by incubation with 150 nM pre-activated NHis-ERK2 (see ERK2 assay for preparation) and 50 μM adenosine triphosphate (ATP, Sigma, cat. no. A2699) in a buffer comprising 20 mM N-(2-hydroxyethyl)piperazine-N′-(2-ethanesulfonic acid) (HEPES, Fluka, Germany, cat. no 54459)/potassium hydroxide (KOH, Roth, Germany, cat. no 6751.1) pH 7.4, 10 mM magnesium chloride (MgCl2, Sigma, Germany, cat. no. M2670), 0.25 mM DTT, 0.05% (w/v) polyoxyethylene 20 stearylether (Brij 78, Sigma, Germany, cat. no. P4019) (HMDB buffer) for 45 min at 30° C. […]

T1 sequence (Q9HBH9 whole entry): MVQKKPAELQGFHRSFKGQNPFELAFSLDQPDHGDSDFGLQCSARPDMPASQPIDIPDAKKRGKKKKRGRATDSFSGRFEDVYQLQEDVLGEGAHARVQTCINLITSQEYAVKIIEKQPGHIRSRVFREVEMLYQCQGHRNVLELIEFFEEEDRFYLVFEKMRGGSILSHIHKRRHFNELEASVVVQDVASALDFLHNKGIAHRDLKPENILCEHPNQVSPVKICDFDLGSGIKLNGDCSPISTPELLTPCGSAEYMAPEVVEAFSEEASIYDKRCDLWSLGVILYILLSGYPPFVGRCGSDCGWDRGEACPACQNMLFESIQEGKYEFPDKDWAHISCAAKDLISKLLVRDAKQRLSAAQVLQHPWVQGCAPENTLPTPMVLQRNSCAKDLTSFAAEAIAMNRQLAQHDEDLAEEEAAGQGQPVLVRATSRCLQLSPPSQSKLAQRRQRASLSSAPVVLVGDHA

Broadly, the IC50 is the point on the concentration scale where inhibition reaches its midpoint. As for `Cc1c(C(=O)NC2CCN(C)CC2)sc2ncnc(Nc3ccc(F)cc3OC3CCOCC3)c12` [Example 174], the IC50 was determined as 60 nM. On to `Cc1c(C(N)=O)sc2ncnc(Nc3ccc(F)cc3O[C@@H]3CCCN(CCC#N)C3)c12` [Example 82, 4-{2-[(R)-1-(2-Cyano-ethyl)-piperidin-3-yloxy]-4-fluoro-phenylamino}-5-methyl-thieno[2,3-d]pyrimidine-6-carboxylic acid amide], for which the IC50 turned out to be 8 nM.

In the case of `Cc1c(C(=O)NCc2cc(F)ccc2F)sc2ncnc(Nc3ccc(F)cc3OC3CCCNC3)c12` (centres unmarked) [Example 57], the IC50 was 43 nM. As for `Cc1c(C(=O)NCc2cn(C)cn2)sc2ncnc(Nc3ccc(F)cc3OC3CCOCC3)c12` [Example 184], the half-maximal inhibitory concentration (IC50) was 22 nM. Then `Cc1c(C(=O)NCCn2ccnc2)sc2ncnc(Nc3ccc(F)cc3OC3CCOCC3)c12` [Example 151], with 57 nM; and `Cc1c(C(=O)NCc2ccccc2C#N)sc2ncnc(Nc3ccc(F)cc3OC3CCCNC3)c12` (centres unmarked) [Example 41], with 31 nM. Then `Cc1c(C(N)=O)sc2ncnc(Nc3ccc(F)cc3O[C@H]3CCCN(Cc4ncon4)C3)c12` [Example 4], with 110 nM; and `Cc1c(C(=O)NCC(F)(F)F)sc2ncnc(Nc3ccc(F)cc3OC3CCOCC3)c12` [Example 159], with 44 nM; and `CCC(C)CNC(=O)c1sc2ncnc(Nc3ccc(F)cc3OC3CCCNC3)c2c1C` (centres unmarked) [Example 20], with 67 nM. Consider `Cc1c(C(N)=O)sc2ncnc(Nc3ccc(F)cc3O[C@@H]3CCCN(S(C)(=O)=O)C3)c12` [Example 84, 4-[4-Fluoro-2-((R)-1-methanesulfonyl-piperidin-3-yloxy)-phenylamino]-5-methyl-thieno[2,3-d]pyrimidine-6-carboxylic acid amide], for which the IC50 amounted to 2 nM.

Regarding `Cc1c(C(=O)NCc2ccccn2)sc2ncnc(Nc3ccc(F)cc3OC3CCOCC3)c12` [Example 219], the half-inhibitory concentration (IC50) was determined as 33 nM.

For `Cc1cccc(CNC(=O)c2sc3ncnc(Nc4ccc(F)cc4OC4CCCNC4)c3c2C)c1` (centres unmarked) [Example 33], the IC50 amounted to 56 nM. For `CC(=O)N1CC[C@H](Oc2cc(F)ccc2Nc2ncnc3sc(C(N)=O)c(C)c23)C1` [Example 96, 4-[2-((S)-1-Acetyl-pyrrolidin-3-yloxy)-4-fluoro-phenylamino]-5-methyl-thieno[2,3-d]pyrimidine-6-carboxylic acid amide], the half-maximal inhibitory concentration (IC50) was found to be 1100 nM. For the compound `Cc1c(C(=O)NCC#CCN(C)C)sc2ncnc(Nc3cccnc3O[C@@H]3CCCOC3)c12` [Example 264], the IC50 was 23 nM. For `Cc1c(C(=O)NCCC2CCCN2C)sc2ncnc(Nc3ccc(F)cc3OC3CCCNC3)c12` (centres unmarked) [Example 53], the concentration for half-maximal inhibition (IC50) came out at 46 nM.

As for `Cc1c(C(N)=O)sc2ncnc(Nc3ccc(F)cc3O[C@H]3CCCN(CCC#N)C3)c12` [Example 3], the IC50 turned out to be 120 nM.

Turning to `Cc1c(C(N)=O)sc2ncnc(Nc3cccnc3O[C@@H]3CCOC3)c12` [Example 267, 5-Methyl-4-{2-[(R)-(tetrahydro-furan-3-yl)oxy]-pyridin-3-ylamino}-thieno[2,3-d]pyrimidine-6-carboxylic acid amide], the half-inhibitory concentration (IC50) came to 36 nM. In the case of `CCN(CC)CCCNC(=O)c1sc2ncnc(Nc3ccc(F)cc3OC3CCOCC3)c2c1C` [Example 223], the half-inhibitory concentration (IC50) stood at 2290 nM. Consider `Cc1c(C(=O)NC2CCN(C)CC2)sc2ncnc(Nc3ccc(F)cc3O[C@@H]3CCCOC3)c12` [Example 259, 4-{4-Fluoro-2-[(R)-(tetrahydro-pyran-3-yl)oxy]-phenylamino}-5-methyl-thieno[2,3-d]pyrimidine-6-carboxylic acid (1-methyl-piperidin-4-yl)-amide], for which the half-inhibitory concentration (IC50) was 38 nM.

On to `Cc1c(C(=O)NCCCN2CCC(O)CC2)sc2ncnc(Nc3ccc(F)cc3OC3CCOCC3)c12` [Example 253], for which the concentration for half-maximal inhibition (IC50) is 34 nM. Then `Cc1c(C(N)=O)sc2ncnc(Nc3ccc(F)cc3O[C@@H]3CCCN(C)C3)c12` [Example 76, 4-[4-Fluoro-2-((R)-1-methyl-piperidin-3-yloxy)-phenylamino]-5-methyl-thieno[2,3-d]pyrimidine-6-carboxylic acid amide], with 43 nM. As to `Cc1c(C(N)=O)sc2ncnc(Nc3ccc(F)cc3O[C@@H]3CCCN(Cc4ncon4)C3)c12` [Example 72, 4-[4-Fluoro-2-((R)-1-[1,2,4]oxadiazol-3-ylmethyl-piperidin-3-yloxy)-phenylamino]-5-methyl-thieno[2,3-d]pyrimidine-6-carboxylic acid amide], the half-maximal inhibitory concentration (IC50) was 9 nM. As to `Cc1c(C(=O)NCCn2cc[nH]c2=O)sc2ncnc(Nc3ccc(F)cc3OC3CCOCC3)c12` [Example 179], the concentration for half-maximal inhibition (IC50) was found to be 166 nM.

`Cc1c(C(=O)NCCN2CCCC2=O)sc2ncnc(Nc3ccc(F)cc3OC3CCOCC3)c12` [Example 176]: the IC50 amounted to 105 nM. Consider `Cc1c(C(=O)NCCCc2c[nH]cn2)sc2ncnc(Nc3ccc(F)cc3OC3CCOCC3)c12` [Example 169], for which the half-inhibitory concentration (IC50) was 38 nM. Then `COC[C@@H]1CCCN1CCCNC(=O)c1sc2ncnc(Nc3ccc(F)cc3OC3CCOCC3)c2c1C` [Example 122], with 48 nM. In the case of `Cc1c(C(=O)NCCc2cn[nH]c2)sc2ncnc(Nc3ccc(F)cc3OC3CCCNC3)c12` (centres unmarked) [Example 28], the half-inhibitory concentration (IC50) was determined as 65 nM.

Take `COCC(=O)N1CCC(Oc2cc(F)ccc2Nc2ncnc3sc(C(N)=O)c(C)c23)C1` (centres unmarked) [Example 94, 4-{4-Fluoro-2-[1-(2-methoxy-acetyl)-pyrrolidin-3-yloxy]-phenylamino}-5-methyl-thieno[2,3-d]pyrimidine-6-carboxylic acid amide]: the concentration for half-maximal inhibition (IC50) amounted to 300 nM. Then `Cc1c(C(=O)NC(CO)CO)sc2ncnc(Nc3ccc(F)cc3OC3CCOCC3)c12` [Example 153], with 113 nM; and `CC(=O)N1CCC[C@@H](Oc2cc(F)ccc2Nc2ncnc3sc(C(N)=O)c(C)c23)C1` [Example 83], with 120 nM; and `Cc1c(C(=O)NCCc2cccs2)sc2ncnc(Nc3ccc(F)cc3OC3CCCNC3)c12` (centres unmarked) [Example 37], with 68 nM.

As to `Cc1c(C(=O)NCc2nccs2)sc2ncnc(Nc3ccc(F)cc3OC3CCCNC3)c12` (centres unmarked) [Example 31], the IC50 was determined as 43 nM.

As to `Cc1c(C(=O)N[C@H]2CC[C@H](O)CC2)sc2ncnc(Nc3ccc(F)cc3OC3CCOCC3)c12` [Example 173], the IC50 worked out at 39 nM.

For the compound `Cc1c(C(=O)N[C@H]2CCC[C@@H]2O)sc2ncnc(Nc3ccc(F)cc3OC3CCOCC3)c12` [Example 254], the IC50 worked out at 42 nM. Then `CONC(=O)c1sc2ncnc(Nc3ccc(F)cc3OC3CCOCC3)c2c1C` [Example 239], with 41 nM; and `Cc1c(C(=O)NCCCN2CCCC2)sc2ncnc(Nc3ccc(F)cc3O[C@H]3CCOC3)c12` [Example 111], with 22 nM. For the compound `Cc1c(C(=O)NCC2CCCO2)sc2ncnc(Nc3ccc(F)cc3OC3CCOCC3)c12` (centres unmarked) [Example 217], the IC50 worked out at 49 nM.

Consider `Cc1c(C(N)=O)sc2ncnc(Nc3ccc(F)cc3O[C@@H]3CCCNC3)c12` [Example 71, 4-[4-Fluoro-2-((R)-piperidin-3-yloxy)-phenylamino]-5-methyl-thieno[2,3-d]pyrimidine-6-carboxylic acid amide], for which the IC50 was 89 nM.
